Data published in US20240287132A1, “PEPTIDE, COMPOSITION, AND GHRELIN SECRETION PROMOTING AGENT” (KYOTO UNIVERSITY, priority 2019, published 2024).

Columns and labels:
male ddY mice [1] = test: Evaluation 2 of eating behavior of mice (feed intake over 2 hours); assay type: in vivo; settings: 7 weeks old male ddY mice, single oral dose 1 mg/kg, 2 hours after feeding, FIG. 6, *: P<0.05 relative to the control
Description: Mice (7 weeks old male ddY mice acclimated for at least 1 week before use after being purchased) were orally administered with a single dose of a saline solution of each peptide (1 mg/kg). Subsequently, a previously weighed feed (CE-2 (trade name) manufactured by CLEA Japan, Inc.) was given to the mice, and 2 hours after the feeding, the weight of the remaining feed was measured. A control test was also carried out in which the same procedure was carried out as shown above except that a single dose of saline was orally administered instead of each peptide. The amount of feed intake (g/2 hours) was defined as the difference between the weight of the feed given to the mice and the weight of the feed remaining 2 hours after the feeding. Based on the results, the amount of feed intake in the control group was normalized to 100, and the amount of feed intake in each group was calculated relative to 100. The results are shown in FIG. 6 (n=7 to 18, *: P<0.05 relative to the control).

[2] = tested on: Ghrelin-secreting cells (MGN3-1); test: Evaluation of intracellular CAMP level; assay type: cell-based; settings: MGN3-1 cells, 0.5 mM IBMX, 37° C. 30 minutes, FIG. 4
Description: Ghrelin-secreting cells (MGN3-1) were […] in a Krebs-Ringer-HEPES buffer containing 0.5 mM IBMX. After the mixture was incubated at 37° C. for 30 minutes, the intracellular CAMP was quantified using HitHunter CAMP Assay for Small Molecules (manufactured by DiscoveRx).

male ddY mice [3] = test: Evaluation of mouse serum ghrelin level; assay type: in vivo; settings: 11 weeks old male ddY mice, 0.3 mg/kg, 1 hour after administration, FIG. 5B
Description: Mice (11 weeks old male ddY mice) were administered with a saline solution of the peptide of SEQ ID NO: 1 (0.3 mg/kg). Subsequently, 1 hour after the administration, blood was collected from the orbital vein of the mice and centrifuged at 4° C. at 1,120×g for 10 minutes. The resulting supernatant was acidified with 1 N HCl and then measured for serum ghrelin level (pg/ml) using an acylated ghrelin enzyme immunoassay kit.

[4] = tested on: Ghrelin-secreting cells (MGN3-1); test: Evaluation of intracellular calcium ion level; assay type: cell-based; settings: data not shown
Description: The intracellular calcium ion level was measured using Calcium Kit II-Fluo 4 (Dojindo Laboratories) and a multi-plate reader (manufactured by BMG LABTECH GmbH, Aex: 485 nm, Xem: 520 nm).

male ddY mice [5] = test: Evaluation 1 of eating behavior of mice (feed intake over 4 hours); assay type: in vivo; settings: 11 weeks old male ddY mice, single oral dose 1 mg/kg, 4 hours after feeding, vs saline control, FIG. 5A
Description: Mice (11 weeks old male ddY mice) were orally administered with a single dose of a saline solution of the peptide of SEQ ID NO: 1 (1 mg/kg). Subsequently, a previously weighed feed (CE-2 (trade name) manufactured by CLEA Japan, Inc.) was given to the mice, and 4 hours after the feeding, the weight of the remaining feed was measured. A control test was also carried out in which the same procedure was carried out as shown above except that a single dose of saline was orally administered instead of the peptide of SEQ ID NO: 1. The amount of feed intake (g/4 hours) was defined as the difference between the weight of the feed given to the mice and the weight of the feed remaining 4 hours after the feeding.

[6] = tested on: Ghrelin-secreting cells (MGN3-1); test: Ghrelin secretion activity evaluation (ghrelin in medium, ELISA); assay type: cell-based; settings: MGN3-1 cells; for ghrelin secretion (ghrelin concentration in medium): peptide concentration 0.01, 0.1, or 1 mM, FIG. 2, n=4; for significance of ghrelin secretion promoting effect: peptide concentration of 1 mM or more, FIG. 2
Description: (§1) Ghrelin-secreting cells (MGN3-1) were seeded at 1×10^5 cells/well onto a 96-well plate and cultured in a sodium octanoate/DMEM medium at 37° C. for 24 hours. After the cultivation, the cells were washed with DPBS. A buffer solution of each peptide was prepared and, 100 μL of the buffer solution (with a peptide concentration of 1 mg/mL or 10 mg/mL) was added to the cells. The cells were further cultured at 37° C. for 4 hours. The buffer used contained 50 μM of sodium octanoate in DMEM.
Unless otherwise stated, all tests shown below were performed using, as a control, a culture obtained in the same manner as shown above except that only the buffer was added instead of the buffer solution of the peptide.
After the cultivation, the medium sample was collected and centrifuged to give a supernatant. Subsequently, 10 μL of 1 N HCl was added to the supernatant, and the resulting sample was stored at −80° C. until it was subjected to the ghrelin concentration measurement shown below.
The concentration of ghrelin in each medium sample was measured using an ELISA kit (Ghrelin (Acylated) EIA Kit A05117 (trade name) manufactured by Bertin Pharma SAS). The results shown in FIG. 1 are values relative to the measured value of the control.
The two peptides were evaluated for their effect on ghrelin secretion by the same method as shown above (Ghrelin Secretion Activity Evaluation 1).

[7] = tested on: Ghrelin-secreting cells (MGN3-1); test: Intracellular ghrelin level (Ghrelin Secretion Activity Evaluation 3); assay type: cell-based; settings: MGN3-1 cells, FIG. 3A, n=4 or 5
Description: as §1
The peptide of SEQ ID NO: 1 was evaluated for its effect on ghrelin secretion (intracellular ghrelin level) by the same method as shown above (Ghrelin Secretion Activity Evaluation 1).

[8] = tested on: ghrelin synthesis-related genes (Preproghrelin, GOAT, and PC3); test: Evaluation of ghrelin synthesis-related gene expression (qPCR); assay type: cell-based; settings: MGN3-1 cells, FIGS. 3B, 3C, 3D, n=4 or 5
Description: The expression levels of the three, ghrelin synthesis-related genes (Preproghrelin, GOAT, and PC3) in the cells obtained after the completion of the cultivation shown above (Ghrelin Secretion Activity Evaluation 1) were measured by the method shown below. First, mRNA was extracted from the cells using RNeasy Mini Kit (manufactured by QIA-GEN) and Takara PrimeScript RT Master Mix (manufactured by Takara Bio Inc.). Subsequently, the mRNA expression level was measured through the amplification of cDNA using LightCycler 96 System (manufactured by Roche Diagnostics K.K.) and THUNDERBIRD qPCR Mix (manufactured by Toyobo Co., Ltd.). The results are shown in FIG. 3B (Preproghrelin), FIG. 3C (GOAT), and FIG. 3D (PC3) (n=4 or 5).

Substance	amount of feed intake relative to control (control normalized to 100) (male ddY mice [1])	ghrelin secretion (ghrelin concentration in medium) [6]	significance of ghrelin secretion promoting effect [6]	further results
TNPW [SEQ ID NO: 5]	significantly increased	–	–	–
QAFE [SEQ ID NO: 3]	significantly increased	–	–	–
QGSF [SEQ ID NO: 7]	significantly increased	–	–	–
QAFEPIRSV [SEQ ID NO: 1]	increased	ghrelin secretion promoting effect	significant	intracellular CAMP level [2]: no effect; serum ghrelin level (male ddY mice [3]): increased; intracellular calcium ion level [4]: no effect; amount of feed intake (male ddY mice [5]): increased; extracellular ghrelin level ([6]; data not shown): increased; intracellular ghrelin level [7]: tendency to reduce; expression levels of the ghrelin synthesis-related genes (Preproghrelin, GOAT, PC3 mRNA) [8]: not found to change
HSPR [SEQ ID NO: 6]	significantly increased	–	–	–
TNPWHSPROGSF (TNPWHSPRQGSF) [SEQ ID NO: 2]	increased	ghrelin secretion promoting effect	significant	–
